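How tested: cells in 96-well plates exposed to compound for 48 hours at five concentrations. TGI: concentration producing complete growth inhibition.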

Test in all cases: inhibition of tumour cell growth, NCI panel, 48 h
Experiment [1] relates to KM12 colon.
For experiment [2], the system named is MCF7 breast.
Experiment [3] relates to MDA-MB-231 breast.
The subject of experiment [4] is NCI-H522 lung.
In experiment [5] the test system is OVCAR-5 ovarian.
In experiment [6] the test system is OVCAR-8 ovarian.
Experiment [7] has as its system RXF 393 renal.
For experiment [8], the system named is SF-268 CNS.
The test system of experiment [9] is SK-MEL-2 melanoma.
For experiment [10], the system named is SK-MEL-28 melanoma.
The test system of experiment [11] is SN12C renal.
Experiment [12] concerns T-47D breast.
For experiment [13], the system named is U251 CNS.

Consider `COP(=N[Si](C)(C)C)(OC)OC`, for which the TGI in experiment [1], in [2], in experiment [3], in experiment [4], in [5] and in experiment [6] was above 100 µM each time. The TGI in experiment [7], in [8], in [9], in experiment [10], in experiment [11] and in experiment [12] was above 100 µM each time. In experiment [13], the TGI is above 100 µM.
For the molecule `Cc1cc(Cl)ccc1NC(=O)/C(Cc1nc2ccc(C(=O)c3ccccc3)cc2[nH]c1=O)=N/NC(=O)c1ccncc1`, the TGI in [1], in experiment [2], in experiment [3], in [4], in experiment [5] and in [6] was above 100 µM each time. Besides, the TGI in experiment [7], in [8], in [9], in experiment [10], in experiment [11] and in [12] was above 100 µM in each case. Besides, the TGI in experiment [13] was above 100 µM.
On to `COC(=O)C1=C(C(=O)OC)C2(c3ccccc3)c3ccccc3C(=O)C1N2C1CCCCC1` (centres undefined), for which the TGI in experiment [1], in [2], in [3], in [4], in experiment [5] and in experiment [6] was above 100 µM each time. Further, the TGI in [7] is above 89 µM; in experiment [8], above 100 µM; in [9], above 100 µM; in experiment [10], above 100 µM; in experiment [11], above 100 µM; in experiment [12], above 100 µM. Moreover, the TGI in experiment [13] was above 100 µM.
Regarding `NS(=O)(=O)c1ccc(NC(=S)/N=C/c2c(O)c3ccccc3[nH]c2=O)cc1`, the TGI in [1], in [2], in experiment [3], in experiment [4], in experiment [5] and in experiment [6] was above 100 µM in each case. Moreover, the TGI in experiment [7], in experiment [8], in [9], in experiment [10], in experiment [11] and in experiment [12] was above 100 µM each time. In addition, the TGI in experiment [13] was above 100 µM.
As to `N#CCN(Cc1ccccc1)[C@H]1CCC[C@]1(O)/C=C/c1ccc2c(c1)OCO2`, the TGI in experiment [1] is 45.3 µM; in experiment [2], 39.6 µM; in [3] it was 71.5 µM; in [4], 32.1 µM; in experiment [5], above 100 µM; in experiment [6] it was 32.5 µM. In addition, the TGI was 77.3 µM in experiment [7]; above 100 µM in experiment [8]; 42.8 µM in [9]; 34 µM in experiment [10]; 46.4 µM in experiment [12]; 38.6 µM in [13].
With `O=c1[nH]nc(Cc2ccccc2)n1N=C1CCCCC1`, the TGI in [1], in experiment [2], in [3], in [4], in experiment [5] and in [6] was above 100 µM throughout. The TGI in [7], in [8], in [9], in experiment [10], in experiment [11] and in experiment [12] was above 100 µM in each case. For the same molecule, in experiment [13], the TGI is above 100 µM.
With `Cc1cc2c(c(C=Nc3ccc(N(C)C)cc3)c1)OC1(C=C2)Oc2ccccc2C(=O)N1C` (centres undefined), the TGI amounted to 31 µM in experiment [1]; 37.9 µM in experiment [2]; 24.8 µM in [3]; 36.9 µM in [4]; 32.4 µM in experiment [5]; 42.9 µM in experiment [6]. In addition, the TGI in experiment [7] is above 58 µM; in experiment [8], 45.4 µM; in experiment [9], above 54.8 µM; in experiment [10] it was 29.7 µM; in experiment [11], 30 µM; in experiment [12] it was 57.5 µM. Further, the TGI in [13] was determined as 28.7 µM.
For the molecule `O=C1c2scc(-c3ccc(F)cc3)c2-n2cccc21`, the TGI in experiment [1], in experiment [2], in experiment [3], in [4], in experiment [5] and in [6] was above 100 µM throughout. Also, the TGI was above 100 µM in experiment [7]; above 100 µM in [8]; above 100 µM in experiment [9]; above 100 µM in experiment [10]; 87.9 µM in experiment [11]; above 100 µM in [12]. In experiment [13], this molecule showed a TGI of 51.9 µM.
With `CSC1=C(C)S/C(=C\c2ccc(/C=C3\SC(C)=C(SC)S3)cc2)S1`, the TGI in [1], in [2], in experiment [3], in experiment [4], in experiment [5] and in experiment [6] was above 100 µM each time. Besides, the TGI is 79 µM in experiment [7]; above 100 µM in experiment [8]; above 100 µM in experiment [9]; above 100 µM in experiment [10]; above 100 µM in experiment [11]; above 100 µM in experiment [12]. This molecule also came in with a TGI in [13] above 100 µM.
Take `CC(=O)O[C@H]1CC[C@@]2(C)C(=CC[C@H]3[C@@H]4C[C@H](N5CCN(C)CC5)[C@H](OC(C)=O)[C@@]4(C)CC[C@@H]32)C1`: the TGI amounted to 32.3 µM in experiment [1]; 15.3 µM in experiment [2]; 34.3 µM in experiment [3]; 34.9 µM in experiment [4]; 76.9 µM in experiment [5]; 30.5 µM in experiment [6]. Besides, the TGI stood at 40.3 µM in experiment [7]; 42.7 µM in experiment [8]; 33.3 µM in experiment [9]; 26.1 µM in experiment [10]; 67.8 µM in [11]; 41.2 µM in [12]. Besides, the TGI in experiment [13] came out at 40.5 µM.

For the origin of these results see PubChem BioAssay (NCI).
